Test results from US8268778B2, “Flavivirus NS5A proteins for the treatment of HIV” (priority 2007, dated 2012).
“Also recorded” adds a separate entry of the source.

How the values were obtained:
HIV-1 isolate (X4) [1] = format: cell-based
CD4 = format: cell-based, human
HIV-1 isolate (X4) [2] = assay: HIV replication (p24 antigen release) in Jurkat cell lines stably expressing NS5A proteins/peptides; format: cell-based; settings: Jurkat cell lines stably expressing the protein/peptide vs vector and frame-shift controls
SDF-1 = format: cell-based, human
CXCR4 = format: cell-based, human
Jurkat cells = format: cell-based, human

| Sequence | HIV replication (HIV-1 isolate (X4) [1]) | CD4 surface expression (CD4) | HIV replication (HIV p24 antigen release into culture supernatants) (HIV-1 isolate (X4) [2]) | SDF-1 release into culture supernatants (SDF-1) | CXCR4 surface expression (CXCR4) | CD4 mRNA regulation, in words (Jurkat cells) | regulation of Th2 cytokines, TNFα, and BCL2 mRNA (Jurkat cells) |
| --- | --- | --- | --- | --- | --- | --- | --- |
| DVIRAGPAWDSVAPAD [152-167scr, negative control, reference compound] | Neither peptide inhibited HIV replication | do not | – | – | – | – | – |
| VDGIPVSWDADARA (Hepatitis GB virus C) [152-165] | – | – | significantly reduced | induced | – | – | – |
| VDGIPVEWDADARAPA [S158E] | – | down-regulate CD4 | significantly inhibited; also recorded: significantly less HIV replication than all other cell lines | induced SDF-1 release | significantly less CXCR4 expressed | – | – |
| VDGIPVSWDADARAPA (Hepatitis GB virus C) [152-167] | – | down-regulate CD4 | significantly reduced | – | – | down-regulated | do not appear to be altered |
| VDGIPVGWDADARAPA (Hepatitis GB virus C) [S158G] | – | do not | inhibited HIV replication; also recorded: significantly less HIV replication than FS and VC | – | – | – | – |
| VDGIPVAWDADARAPA (Hepatitis GB virus C) [S158A] | – | do not | inhibited HIV replication; also recorded: significantly less HIV replication than FS and VC | – | – | – | – |
